Assay [1] concerns the target T1, PDIA1 (Homo sapiens, UniProt P07237).
T1 construct: The mature human PDIA1 with an N-terminal His6x-tag was expressed and purified; His6 (N); made in house
In words: Insulin turbidity assay, disulfide reductase activity. Particulars: insulin substrate, PDIA1 800 nM, reducing conditions. The class given is biochemical. How it is done:
To further evaluate the inhibitory effect of punicalin and punicalagin on the enzymatic activity of the two proteins, we performed a different assay using insulin, a physiologically more appropriate substrate. The results obtained are reported in Figure 4 and show again a lesser inhibitory effect of punicalin compared to punicalagin, as observed with the glutathione-based assay.
PDI disulfide reductase activity was assayed by measuring the reduction of insulin catalyzed by PDIs with DTT. A 50 μM stock solution of each PDI was reduced using TCEP (5 mM final concentration) for 90 min at room temperature. […] After incubation, an equal volume of the 2× reaction mixture (consisting of DTT 50 μM and human insulin 0.32 mM) was added. Protein activity was evaluated by monitoring the increase in turbidity of the solutions at 600 nm.
(§1) In both assays, the inhibition constants were extrapolated by GraphPad Prism 8.0 software (GraphPad Software, San Diego, CA, USA), plotting the obtained data as logarithm dose–response curves.

The target in assay [2] is T2, PDIA3 (Homo sapiens, UniProt P30101).
T2 construct: The mature recombinant form (devoid of the N-terminal presence) of the human PDIA3 protein was expressed and purified; made in house
T2 sequence (P30101 25-505): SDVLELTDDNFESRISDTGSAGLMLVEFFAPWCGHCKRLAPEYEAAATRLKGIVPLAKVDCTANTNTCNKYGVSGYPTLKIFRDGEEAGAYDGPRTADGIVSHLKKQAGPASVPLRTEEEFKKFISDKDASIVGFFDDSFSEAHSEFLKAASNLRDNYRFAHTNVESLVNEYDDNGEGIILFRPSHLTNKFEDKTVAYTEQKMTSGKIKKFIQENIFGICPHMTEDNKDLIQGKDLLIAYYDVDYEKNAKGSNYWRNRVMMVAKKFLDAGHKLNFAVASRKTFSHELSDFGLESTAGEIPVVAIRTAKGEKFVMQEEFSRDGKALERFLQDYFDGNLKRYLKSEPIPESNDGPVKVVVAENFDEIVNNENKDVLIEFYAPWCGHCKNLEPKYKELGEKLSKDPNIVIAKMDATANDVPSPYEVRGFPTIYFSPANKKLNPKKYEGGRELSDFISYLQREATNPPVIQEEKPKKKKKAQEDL
In words: Differential scanning fluorimetry (protein thermal shift). The class given is binding. How it is done:
(§2) The effect of punicalin and punicalagin on the stability of both proteins was evaluated by differential scanning fluorimetry (DSF). Initially, PDIA1 and PDIA3 were incubated at 25 °C for 20 min with both substances at 5 µM and 20 µM concentrations. […] The reading was optimized at intervals of 0.2 °C every 5 s. Once the fluorescence profile was obtained, the data were analyzed with the GraphPad prism program, by either fitting data with a Boltzmann equation or calculating the first derivative. In DSF analyses, a gradual increase in fluorescence is observed, due to a conformational change in the protein, which reaches a maximum value and then decreases because of protein precipitation.
(§3) To evaluate Tm, we focused the attention on the main transition, and thus we fitted, with a Boltzmann equation, the data in the range of 25–55 °C for PDIA3 and in the range of 45–70 °C for PDIA1. Again, the two substances show a destabilizing effect, which was more evident for PDIA3 than for PDIA1. In fact, punicalagin and punicalin at a 20 µM concentration cause a shift of Tm of at least 6 °C in the case of PDIA3, while this is approximately 3 °C for PDIA1 (Figure 7).
(§4) Protein stability in the absence and presence of punicalagin/punicalin was tested by means of the fluorescence-based thermal stability assay or differential scanning fluorimetry (DSF) developed by Pantoliano and coworkers. DSF records the fluorescence emission signal from the binding of a dye (SYPRO orange) to the exposed hydrophobic patches upon protein unfolding. Fluorescence measurements were performed using a CFX96 Connect RT-PCR instrument (BioRad, Hercules, CA, USA). Aliquots of 18 μL of protein solution (2 μM), freshly diluted in Tris Buffered saline (50 mM TrisHCl, pH 8.0, 150 mM NaCl) containing 0.1 mM DTT, 0.2 mM EDTA, and 1: 1000 dilution of SYPRO Orange (50 mM stock solution in DMSO), were distributed in a 96-well plate. Sample wells were added with punicalagin or punicalin at a final concentration of 5 uM or 20 μM by adding 2 μL of a 10-fold concentrated freshly prepared stock solution. As control, the protein solution was added with 2 μL of the dilution buffer. A melting point analysis was recorded by increasing the temperature from 25 to 70 °C with an increment of 0.2 °C every 5 s and reading, at each temperature, the fluorescence in fluorescence resonance energy transfer mode (FRET). Each measure was the average of three sample well readings, and each DSF experiment was repeated at least three times. To calculate Tm values, DSF data from the melting curve were exported and fitted to a Boltzmann equation using GraphPad software. The effect of punicalagin and punicalin was evaluated comparing the Tm values in the presence and absence of each molecule.

In assay [3] the target is T1, PDIA1. The description is as above. The class given is binding. Particulars: PDIA1, compound 20 µM. How it is done:
as §2, §3, §4

Assay [4] addresses T2, PDIA3. In words: Glutathione reduction assay (di-E-GSSG), disulfide reductase activity. The class given is biochemical. Particulars: di-E-GSSG substrate, PDIA3 20 nM, reducing conditions. Here is the method:
(§5) The enzymatic activity of PDIA proteins was evaluated by glutathione reduction and insulin turbidity assays. PDIA1 and PDIA3 are proteins capable of catalyzing oxidation-reduction and isomerization reactions through thiol groups and disulfide bonds. Because the action of punicalagin on the reductase activity of the two proteins was previously evaluated by glutathione reduction assay, the same assay was repeated using punicalin to compare the effect of both molecules on PDIs.
(§6) Di-eosin glutathione disulfide (di-E-GSSG) was synthesized by the reaction of eosin isothiocyanate with oxidized glutathione (GSSG) and used as a fluorogenic substrate of PDIs to monitor disulfide reductase activity according to the method of Raturi and Mutus, with some modifications. Protein activity was evaluated by monitoring the emission fluorescence increase (λem = 545 nm and λex = 525 nm), and the effect of punicalin (concentration ranging from 2 to 50 µM) was tested.
as §1

The target in assay [5] is T1, PDIA1. The assay is described as above. The class given is biochemical. Particulars: di-E-GSSG substrate, PDIA1 20 nM, reducing conditions. How it is done: as §5, §6, §1

T1 sequence (P07237 18-508): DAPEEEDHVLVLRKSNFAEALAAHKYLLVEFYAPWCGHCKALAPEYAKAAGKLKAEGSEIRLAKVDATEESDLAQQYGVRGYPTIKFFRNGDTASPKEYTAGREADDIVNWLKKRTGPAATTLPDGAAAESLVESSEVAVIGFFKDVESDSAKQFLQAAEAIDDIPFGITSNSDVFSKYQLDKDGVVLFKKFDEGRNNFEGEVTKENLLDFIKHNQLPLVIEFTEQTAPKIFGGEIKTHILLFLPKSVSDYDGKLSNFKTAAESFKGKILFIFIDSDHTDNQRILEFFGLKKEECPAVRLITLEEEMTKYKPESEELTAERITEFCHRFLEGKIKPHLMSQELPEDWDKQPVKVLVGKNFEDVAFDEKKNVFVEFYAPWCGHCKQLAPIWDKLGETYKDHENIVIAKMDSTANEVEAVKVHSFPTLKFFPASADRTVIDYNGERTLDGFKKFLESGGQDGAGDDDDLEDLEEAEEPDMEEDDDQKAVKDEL

The term IC50 denotes the midpoint of a concentration-inhibition curve. `O=C1OC[C@H]2OC(O)[C@H](O)[C@@H](O)[C@@H]2OC(=O)c2cc(O)c(O)c(O)c2-c2c(O)c(O)c3oc(=O)c4c(c(O)c(O)c5oc(=O)c2c3c54)-c2c1cc(O)c(O)c2O` (mixture of isomers) [Punicalin, punicalin]: the IC50 on PDIA1 [1] was greater than 250 µM; on PDIA3 [4] it was 10.7 µM; against PDIA1 [5], 58.3 µM. Moreover, the “left shift of first transition (first-derivative graph)” value on PDIA3 [2] (PDIA3, compound 20 µM) is “about 3 °C”. The “shift towards lower temperature of second transition (first-derivative graph)” value at PDIA3 [2] (PDIA3, compound 20 µM) was “more than 10 °C”. Further, the “shift of Tm (destabilizing, Boltzmann fit)” value on PDIA3 [2] (PDIA3, compound 20 µM, fit range 25–55 °C) is “at least 6 °C”; at PDIA1 [3] (fit range 45–70 °C), “approximately 3 °C”. Moreover, the “Tm of PDIA3 after addition of compound” value on PDIA3 [2] (PDIA3 alone Tm 46 °C) was “below 40 °C”. For the same molecule, on PDIA3 [2] (abstract statement), the “change in the thermal stability of PDIA3, shift” value was “up to 8 °C”. Also, at PDIA1 [3], the “shift towards lower temperature of second main transition (first-derivative graph)” value was “about 5 °C”.

Values taken from PMC11476419, “Analysis of Punicalin and Punicalagin Interaction with PDIA3 and PDIA1” (International Journal of Molecular Sciences, 2024).
